Target: T1, human FSH receptor (Homo sapiens, UniProt P23945)
T1 construct: expressed in transfected cells; host or cells: CHO cells (hFSHR clone 16)
T1 sequence (P23945 18-695): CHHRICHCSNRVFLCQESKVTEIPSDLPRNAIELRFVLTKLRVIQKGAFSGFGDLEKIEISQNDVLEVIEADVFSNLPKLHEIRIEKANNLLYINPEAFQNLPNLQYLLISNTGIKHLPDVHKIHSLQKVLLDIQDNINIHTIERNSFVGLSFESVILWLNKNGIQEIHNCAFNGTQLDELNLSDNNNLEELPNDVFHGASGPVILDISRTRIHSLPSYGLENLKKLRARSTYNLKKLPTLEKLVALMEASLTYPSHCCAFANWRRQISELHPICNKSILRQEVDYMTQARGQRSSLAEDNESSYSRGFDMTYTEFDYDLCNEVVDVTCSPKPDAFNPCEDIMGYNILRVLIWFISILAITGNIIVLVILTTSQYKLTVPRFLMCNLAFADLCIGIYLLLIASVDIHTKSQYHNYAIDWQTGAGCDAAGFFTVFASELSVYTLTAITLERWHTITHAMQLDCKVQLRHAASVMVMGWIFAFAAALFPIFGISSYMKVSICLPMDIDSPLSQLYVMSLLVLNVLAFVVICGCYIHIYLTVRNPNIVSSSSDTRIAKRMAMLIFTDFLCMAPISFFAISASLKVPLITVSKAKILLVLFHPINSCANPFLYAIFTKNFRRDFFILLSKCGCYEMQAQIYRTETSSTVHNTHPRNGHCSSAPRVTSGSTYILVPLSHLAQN
Assay: HTRF assay for measuring cAMP in cells (FSH antagonism)
Type: cell-based
Settings: FSH-antagonistic effect; hFSHR clone 16 cells (CHO cells stably transfected with the human FSH receptor); in the presence of 1e-9 mol/l hFSH; 37°C for 2h
Procedure: The method is based on a competitive immunoassay between native cAMP, which has been produced by the cells, and cAMP which is labelled with cAMPD2 conjugate. The tracer binding was visualized by a monoclonal antibody, anti-cAMP labelled with cryptate [HTRF = homogeneous time-resolved fluorescence]. The specific signal is inversely proportional to the cAMP concentration of the samples employed. The 665nm/ 620nm fluorescence ratio was evaluated.
Materials used: 96-well plates for the tissue culture, 96-well plates with black edge and black base (e.g. Fluotrac 600 from Greiner), 96-well plates for the substance dilutions of polypropylene and cAMP Femtomolar (4000wells Kit, CIS Bio International # 62AM5PEJ). Reagent used: BSA (bovine serum albumin) Fraction V protease-free, IBMX (3-isobutyl-1-methylxanthine), hFSH (human follicle stimulating hormone), Triton X-100 analytical grade, potassium fluoride analytical grade, G 418 (Geneticin) and Accutase.
Buffer 1 (washing and testing buffer) contained PBS, 1 mM CaCl2, 1 mM MgCl2, 0.2% glucose; 0.1% BSA, 1 mM IBMX.
Buffer 2 (2x lysis buffer) contained 1% Triton X-100 in PBS (without CaCl2 and MgCl2).
Buffer 3 (assay buffer) contained 50 mM potassium phosphate buffer (pH 7.0); 800 mM potassium fluoride; 0.2% BSA (always added fresh).
On day 1, the cells were seeded in 96-well plates (3x10^4 cells per well hFSHR clone 16 cells (CHO cells stably transfected with the human FSH receptor in 150 µl of medium). The next day, test substance dilutions were made up. For this purpose, all the substances were diluted in ice-cold buffer 1 (with or without hFSH), and the substance dilutions were placed on ice until applied to the cells. The cell supernatant was then aspirated off, and the cells were washed 2x with 200 µl of buffer 1. The cells were treated with 60 µl of the appropriate substance concentrations at 37°C for 2h. The cells were then lysed with 60 µl of buffer 2 (put onto the supernatant) (on a plate shaker at RT for 30 min). The test conjugates (cAMP-D2 and anti-cAMP cryptate, CIS Bio) were diluted in buffer 3 in accordance with the manufacturers' information. The actual mixture for measurement was pipetted into a black 96-well plate (in each case 15 µl of the cell lysate diluted with 35 µl of buffer 1; firstly 25 µl of cAMP-D2 conjugate were pipetted and, after 10 min, 25 µl of the anti-cAMP cryptate were added). This is followed by incubation at RT for 90 minutes. The measurement was carried out in a PheraStar (BMG).
Dose-effect curve (hFSH) for the human receptor: 1 e-8, 3e-9, 1 e-9, 3e-10, 1e-10, 3e-11, 1 e-11, 3e-12 mol/I. The test substances were employed in suitable dilutions in the absence (test for agonism) and in the presence of 1e-9 mol/l hFSH.
The values of the well ratio were averaged and then entered directly in SigmaPlot versus the concentrations. The maximum and minimum values were determined for each plate, and half the difference is to be regarded as IC50. […] Table 1. FSH-antagonistic effect of selected compounds in the HTRF assay

Structure (SMILES)	IC50 [µM]
COc1ccccc1C#Cc1ccc(OC(C)C)c(C(=O)N[C@H](CO)Cc2c[nH]c3ccccc23)c1 [Example 4, N-[(S)-1-Hydroxymethyl-2-(1H-indol-3-yl)-ethyl]-2-isopropoxy-5-(2-methoxy-phenylethynyl)-benzamide]	7.5
CC(C)Oc1ccc(C#Cc2ccccc2)cc1C(=O)NC(CO)Cc1c[nH]c2ccc(F)cc12 (stereo not shown) [Example 21, N-[2-(5-Fluoro-1H-indol-3-yl)-1-hydroxymethyl-ethyl]-2-isopropoxy-5-phenylethynyl-benzamide]	0.3
COc1ccccc1C#Cc1ccc(OC(C)C)c(C(=O)N[C@H](Cc2c[nH]c3ccccc23)C(C)(C)O)c1 [Example 20, N-[(R)-2-Hydroxy-1-(1H-indol-3-ylmethyl)-2-methyl-propyl]-2-isopropoxy-5-(2-methoxy-phenylethynyl)-benzamide]	0.7
CCCOc1ccc(C#Cc2ccccc2)cc1C(=O)N[C@@H](CO)Cc1c[nH]c2ccccc12 [Example 1, N-[(R)-1-Hydroxymethyl-2-(1H-indol-3-yl)-ethyl]-5-phenylethynyl-2-propoxybenzamide]	0.25

These reach a lower IC50. Values come first.

IC50 [µM]	Structure (SMILES)
0.02	CCn1cc(C[C@H](CO)NC(=O)c2cc(C#Cc3ccccc3OC)ccc2OC(C)C)c2ccccc21 [Example 24, N-[(R)-2-(1-Ethyl-1H-indol-3-yl)-1-hydroxymethyl-ethyl]-2-isopropoxy-5-(2-methoxy-phenylethynyl)-benzamide]
0.07	CCCOc1ccc(C#Cc2ccccc2OC)cc1C(=O)N[C@@H](CO)Cc1c[nH]c2ccccc12 [Example 2, N-[(R)-1-Hydroxymethyl-2-(1H-indol-3-yl)-ethyl]-5-(2-methoxyphenylethynyl)-2-propoxy-benzamide]
0.1	COc1ccccc1C#Cc1cc(C(=O)N[C@@H](CO)Cc2c[nH]c3ccccc23)c2ccccc2c1 [Example 6, 3-(2-Methoxy-phenylethynyl)-naphthalene-1-carboxylic acid [(R)-1-hydroxymethyl-2-(1H-indol-3-yl)-ethyl]-amide]
0.15	COc1ccccc1C#Cc1ccc(OC(C)C)c(C(=O)NC(CO)Cc2c[nH]c3ccc(F)cc23)c1 (stereo not shown) [Example 22, N-[2-(5-Fluoro-1H-indol-3-yl)-1-hydroxymethyl-ethyl]-2-isopropoxy-5-(2-methoxy-phenylethynyl)-benzamide]
0.03	COc1ccccc1C#Cc1ccc(OC(C)C)c(C(=O)NC(CO)Cc2c[nH]c3cc(F)c(F)cc23)c1 (racemic) [Example 23, N-[(RS)-2-(5,6-Difluoro-1H-indol-3-yl)-1-hydroxymethyl-ethyl]-2-isopropoxy-5-(2-methoxy-phenylethynyl)-benzamide]
0.08	Cc1ccccc1C#Cc1ccc(OC(C)C)c(C(=O)N[C@@H](CO)Cc2c[nH]c3ccccc23)c1 [Example 5, N-[(R)-1-Hydroxymethyl-2-(1H-indol-3-yl)-ethyl]-2-isopropoxy-5-o-tolylethynyl-benzamide]

— EP1932831A1, “1,2-Diarylacetylene Derivatives of Acyltryptophanols” (Bayer Schering Pharma Aktiengesellschaft, priority 2006, dated 2008)
